Measurements published in ChEMBL document CHEMBL3217634, “Synthesis and trypanocidal action of new adamantane substituted imidazolines” (Medchemcomm, 2013).

What was measured:
Trypanosoma brucei = assay: Antitrypanosomal activity against Trypanosoma brucei Lister 427 after 2 days by Alamar Blue fluorescence assay; format: functional, organism-based; conditions: Lister 427, 48 h
[1] = Selectivity index, ratio of IC50 for rat L6 cells to IC50 for Trypanosoma brucei Lister 427; format: toxicity, cell-based; conditions: L6 cells (versus Trypanosoma brucei Lister 427), read-out: Ratio IC50
L6 = assay: Cytotoxicity against rat L6 cells after 6 days by Alamar Blue fluorescence assay; format: cell-based; conditions: L6, 144 h

| IC50 (Trypanosoma brucei) | IC90 (Trypanosoma brucei) | SMILES | selectivity ratio [1] | IC50 (L6) |
| --- | --- | --- | --- | --- |
| 1.57 µM | 2.42 µM | C1=NCC(C23CC4CC(CC(C5CCCC5)(C4)C2)C3)N1 (stereo not drawn) | 2.4 | 3.7 µM |
| 1.5 µM | 1.83 µM | CN1C=NCC1C12CC3CC(CC(C4CCCC4)(C3)C1)C2 (stereo not drawn) | 3.9 | 5.77 µM |
| 2.16 µM | 2.77 µM | CC1=NCC(C23CC4CC(CC(C5CCCC5)(C4)C2)C3)N1 (stereo not drawn) | 1.6 | 3.56 µM |
| 2.97 µM | 4.51 µM | CC1=NCC(C23CC4CC(CC(C5CCCC5)(C4)C2)C3)N1C (stereo not drawn) | 1.3 | 3.77 µM |
| 2.17 µM | 2.63 µM | NC1=NCC(C23CC4CC(CC(C5CCCC5)(C4)C2)C3)N1 (stereo not drawn) | 7.9 | 17.2 µM |
| 1.65 µM | 2.23 µM | CN1C(N)=NCC1C12CC3CC(CC(C4CCCC4)(C3)C1)C2 (stereo not drawn) | 7.1 | 11.7 µM |
| 2.89 µM | 4.2 µM | C1=NCC(C23CC4CC(CC(C5CCCCC5)(C4)C2)C3)N1 (stereo not drawn) | 2.5 | 7.22 µM |
| 1.86 µM | 2.52 µM | NC1=NCC(C23CC4CC(CC(C5CCCCC5)(C4)C2)C3)N1 (stereo not drawn) | 10.2 | 19 µM |
| 1.72 µM | 2.35 µM | CN1C(N)=NCC1C12CC3CC(CC(C4CCCCC4)(C3)C1)C2 (stereo not drawn) | 4.3 | 7.39 µM |
| 7.09 µM | 9.02 µM | C1=NCC(C23CC4CC(CC(c5ccccc5)(C4)C2)C3)N1 (stereo not drawn) |  |  |
| 7.91 µM | 13.1 µM | CN1C=NCC1C12CC3CC(CC(c4ccccc4)(C3)C1)C2 (stereo not drawn) |  |  |
| 4.88 µM | 8.11 µM | CC1=NCC(C23CC4CC(CC(c5ccccc5)(C4)C2)C3)N1 (stereo not drawn) |  |  |
| 7.16 µM | 10.3 µM | CC1=NCC(C23CC4CC(CC(c5ccccc5)(C4)C2)C3)N1C (stereo not drawn) |  |  |
| 7.39 µM | 11.8 µM | NC1=NCC(C23CC4CC(CC(c5ccccc5)(C4)C2)C3)N1 (stereo not drawn) |  |  |
| 4.53 µM | 5.58 µM | CN1C(N)=NCC1C12CC3CC(CC(c4ccccc4)(C3)C1)C2 (stereo not drawn) |  |  |
| 1.82 µM | 2.41 µM | C1=NCC(C23CC4CC(CC(C5CCCC5)(C4)C2)C3)N1C1CCCCC1 (stereo not drawn) | 1.9 | 3.46 µM |
| 0.65 µM | 0.84 µM | NC1=NCC(C23CC4CC(CC(C5CCCC5)(C4)C2)C3)N1C1CCCCC1 (stereo not drawn) | 5 | 3.22 µM |
| 16.4 µM | 24.2 µM | C1=NCC(C23CC4CC(CC(C5CCCC5)(C4)C2)C3)N1c1ccccc1 (stereo not drawn) |  |  |
| 11.1 µM | 15.5 µM | NC1=NCC(C23CC4CC(CC(C5CCCC5)(C4)C2)C3)N1c1ccccc1 (stereo not drawn) |  |  |
| > 132 µM | > 132 µM | NC12CC3CC(CC(C3)C1)C2 [AMANTADINE] |  |  |

| SMILES | IC50 (Trypanosoma brucei) | IC90 (Trypanosoma brucei) | selectivity ratio [1] | IC50 (L6) |
| --- | --- | --- | --- | --- |
| CC(N)C12CC3CC(CC(C3)C1)C2 (stereo not drawn) [RIMANTADINE] |  | 14 µM |  |  |
